According to ChEMBL document CHEMBL1127983, “The synthesis and evaluation of peptidyl aspartyl aldehydes as inhibitors of ice” (Bioorg Med Chem Lett, 1994):
Square brackets hold non-standard residues; d marks the D form. Peptide text beside a SMILES is read from it. βAla = NCCC(=O)O

Target: T1, Caspase-1 (Homo sapiens, UniProt P29466)
T1 sequence (P29466 whole entry): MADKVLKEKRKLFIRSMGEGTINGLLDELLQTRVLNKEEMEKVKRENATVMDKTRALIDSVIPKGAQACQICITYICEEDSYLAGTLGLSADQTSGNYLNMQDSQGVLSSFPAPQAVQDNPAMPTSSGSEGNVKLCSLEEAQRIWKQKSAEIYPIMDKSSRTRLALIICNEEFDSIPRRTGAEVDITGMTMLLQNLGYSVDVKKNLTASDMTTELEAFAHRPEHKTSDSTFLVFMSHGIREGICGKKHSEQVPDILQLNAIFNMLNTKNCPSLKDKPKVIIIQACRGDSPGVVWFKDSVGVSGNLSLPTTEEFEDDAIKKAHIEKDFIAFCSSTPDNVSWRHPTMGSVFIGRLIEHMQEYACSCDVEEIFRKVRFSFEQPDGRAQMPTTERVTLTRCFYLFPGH
Test: Binding affinity towards IL-1 beta converting enzyme (ICE)

| SMILES | Ki |
| --- | --- |
| CC(=O)N(C)[C@@H](Cc1ccc(O)cc1)C(=O)N[C@H](C(=O)N[C@@H](C)C(=O)N[C@H](C=O)CC(=O)O)C(C)C | 120 nM |
| CC(=O)N[C@@H](Cc1ccc(O)cc1)C(=O)N[C@H](C(=O)N[C@H](C=O)CC(=O)O)C(C)C (Ac-Tyr-Val-Asp-aldehyde) | 2400 nM |
| CC(=O)N[C@@H](Cc1ccc(O)cc1)C(=O)N(C)[C@H](C(=O)N[C@@H](C)C(=O)N[C@H](C=O)CC(=O)O)C(C)C | 50000 nM |
| CC(=O)N[C@@H](Cc1ccc(O)cc1)C(=O)N[C@H](C(=O)N[C@@H](C)C(=O)N[C@@H]1COC(=O)C1)C(C)C | > 20000 nM |
| CC(C)[C@H](NC(=O)CC(Cl)Cl)C(=O)N[C@@H](C)C(=O)N[C@H](C=O)CC(=O)O | 28 nM |
| CC(=O)N[C@@H](Cc1ccccc1)C(=O)N[C@H](C(=O)N[C@@H](C)C(=O)N[C@H](C=O)CC(=O)O)C(C)C (Ac-FVAD-aldehyde) | 42 nM |
| CC(=O)N[C@@H](Cc1cc(I)c(O)c(I)c1)C(=O)N[C@H](C(=O)N[C@@H](C)C(=O)N[C@H](C=O)CC(=O)O)C(C)C | 7.5 nM |
| CC(=O)N[C@@H](Cc1ccc(O)cc1)C(=O)N[C@H](C(=O)N[C@@H](C)C(=O)N[C@H](/C=N\NC(N)=O)CC(=O)O)C(C)C | 500 nM |
| CC(=O)N[C@@H](Cc1ccc(O)cc1)C(=O)N[C@H](C(=O)N[C@@H](C)C(=O)NCCC(=O)O)C(C)C (Ac-YVA[βAla]-OH) | > 20000 nM |
| CC(=O)N[C@H](C(=O)N[C@@H](C)C(=O)N[C@H](C=O)CC(=O)O)C(C)C (Ac-Val-Ala-Asp-aldehyde) | 1700 nM |

Other lines, results leading:

| Ki | SMILES |
| --- | --- |
| > 20000 nM | CC(=O)N[C@@H](C)C(=O)N[C@H](C=O)CC(=O)O (Ac-Ala-Asp-aldehyde) |
| > 20000 nM | CC(=O)N[C@@H](Cc1ccc(O)cc1)C(=O)N[C@H](C(=O)N[C@@H](C)C(=O)N(C)[C@H](C=O)CC(=O)O)C(C)C |
| > 20000 nM | CC(=O)N[C@@H](Cc1ccc(O)cc1)C(=O)N[C@H](C=O)CC(=O)O (Ac-Tyr-Asp-aldehyde) |
| 2100 nM | CC(=O)N[C@@H](Cc1ccc(O)cc1)C(=O)N[C@@H](C)C(=O)N[C@H](C=O)CC(=O)O (Ac-Tyr-Ala-Asp-aldehyde) |
| > 20000 nM | CC(=O)N[C@@H](Cc1ccc(O)cc1)C(=O)N[C@H](C(=O)N[C@@H](C)C(=O)N[C@@H]1CNC(=O)C1)C(C)C |
| 6 nM | CC(=O)N[C@@H](Cc1ccc(O)cc1)C(=O)N[C@H](C(=O)N[C@@H](C)C(=O)N[C@H](C=O)CC(=O)O)C(C)C |
| 59 nM | CC(=O)N[C@@H](Cc1ccc(O)cc1)C(=O)N[C@H](C(=O)N(C)[C@@H](C)C(=O)N[C@H](C=O)CC(=O)O)C(C)C |
